From patent US7241763B2, “3-furanyl analogs of toxoflavine as kinase inhibitors” (priority 2002, dated 2007) come the findings set out here.

Data set [1] has as its target T1, AKT3 (Homo sapiens, UniProt Q9Y243). Kind of data set: Cellular inhibition of AKT3 using an ELISA (AKT cel, Ex. C6). Format: cell-based. Further details: endogenous in cells; host or cells: MDA-MB 231. The note with it: MDA-MB 231 cells, phosphorylated MAPK ELISA, 30 minutes with compound; read-out: AKT cel (Ex. C6): pIC50 values (converted). Here is the method: Cellular Inhibition of AKT3 using an ELISA
The human breast adenocarcinoma cell line (MDA-MB 231) was used in an phosphospecific antibody cell ELISA (PACE) to assess the inhibitory effect of the compounds on AKT3 mediated phosphorylation of mitogen-activated protein kinase (MAPK). In the experiments the MDA-MB 231 cells were serum starved for 24 hours (5% CO2; 37° C.). Subsequently, the cells are incubated at room temperature for 2 hours with 20 μM (in serum free medium) of the phosphatidylinositol 3-kinase inhibitor Ly294002 (Alexis, San Diego, Calif.) prior to the incubation for 30 minutes with the compounds at a final concentration ranging from 1 nM to 3 μM. After fixation (with 4.5% formaldehyde) for 20 minutes and washing with PBS (0.1M) the cells were successively incubated with for 5 minutes with 0.1% Triton X-100 in PBS, for 20 minutes with 0.6% H2O2 and 1 hour with a 2% BSA solution as blocking buffer. […] The OD (490–655 nm) reflected the amount of phosphorylated MAPK and the pIC50 of the compounds was based on their effect with respect to blanco (0.1% DMSO) or an internal reference compound treatment.

The subject of another data set is A2780 cell. Kind of data set: Cytotox/survival of A2780 cell after 3 days. Type of data set: cell-based. The note with it: Homo sapiens, 72 h; A2780 ovarian carcinoma cell line, 3 days; read-out: Cytotox/survival of A2780 cell after 3 days - pIC50 values (converted). As to the method:
In an alternative assay, the growth inhibitory effect of the compounds was tested on the ovarian carcinoma cell line A2780 using art known cytotoxicity assays such as LIVE/DEAD (Molecular Probes) or MTT.

The next data set has as its target T2, CDC25B (Homo sapiens, UniProt P30305).
T2 sequence (P30305 1-580): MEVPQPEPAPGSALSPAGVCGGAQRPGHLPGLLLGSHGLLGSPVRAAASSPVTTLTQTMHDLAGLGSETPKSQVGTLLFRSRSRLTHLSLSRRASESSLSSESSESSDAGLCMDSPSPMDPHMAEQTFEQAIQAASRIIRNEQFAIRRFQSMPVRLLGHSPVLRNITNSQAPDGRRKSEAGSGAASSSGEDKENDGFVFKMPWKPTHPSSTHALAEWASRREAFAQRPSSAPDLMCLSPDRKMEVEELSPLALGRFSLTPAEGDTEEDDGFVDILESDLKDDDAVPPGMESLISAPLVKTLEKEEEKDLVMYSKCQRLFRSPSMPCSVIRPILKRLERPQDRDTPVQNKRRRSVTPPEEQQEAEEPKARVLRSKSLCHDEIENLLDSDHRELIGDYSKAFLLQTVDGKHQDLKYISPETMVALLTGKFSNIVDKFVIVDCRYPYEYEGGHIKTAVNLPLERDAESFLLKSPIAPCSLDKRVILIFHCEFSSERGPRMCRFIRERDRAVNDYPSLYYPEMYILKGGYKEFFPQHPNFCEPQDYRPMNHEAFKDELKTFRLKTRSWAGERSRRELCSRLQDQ
Put plainly: In vitro inhibition of CDC25B using the fluorogenic substrate 3-OMFP (CDC25B WT, Ex. C5). Format: biochemical. The note with it: 3-OMFP substrate, 1 hour room temperature; read-out: CDC25B WT (Ex. C5): pIC50 values (converted). Here is the method: In Vitro Inhibition of CDC25B using the Fluorogenic Substrate 3-OMFP
CDC25B phosphatase activity is assessed using the fluorogenic substrate 3-O-methyl-flurorescein-phosphate (3-OMFP). The phosphatase-reaction is performed for 1 hour at room temperature in a black microtiter plate in a volume of 50 μl. The reaction mixture contains 4 μg/mlCDC25B, 15 μM (3-OMFP), 15 mM Tris, 50 mM NaCl, 1 mM DTT, 1 mM Na2EDTA at pH 8.0 and 0.1% DMSO solution at 10^−5 M and the hits are tested in the same conditions in a full dose/response from 10^−5, 3.10^−6, 10^−6 and 3.10^−7 M. The enzymatic activity is determined by measuring the fluorescent signal at 485 nm (ex.) and 538 (em.).

The target of data set [2] is T1, AKT3. Kind of data set: In vitro inhibition of AKT3 using a filter assay (AKT3 pep., Ex. C3). Format: biochemical. The note with it: histone H2B substrate, filter assay, 25° C. 3 hrs; read-out: AKT3 pep. (Ex. C3): pIC50 values (converted). As to the method: In Vitro Inhibition of AKT3 using a Filter Assay
In the present AKT3 filter assay, a kinase substrate consisting of a fragment of histone H2B, is incubated with the aforementioned protein in the presence of (^33P) radiolabeled ATP. The (^33P)phosporylated substrate binds to a phosphocellulose cation exchange filter, that can easily be removed from the incubation mixture and counted using a microplate scintillation counter.
AKT3 filter assays were performed at 25° C. for 3 hrs in the presence of 25 mM Hepes, pH 7.0, containing 15 mM MgCl2, 1 mM DTT Each assay was performed in a 100 μl reaction volume containing 111 nM AKT3 (diluted in 25 mM Hepes, pH 7.0, containing 15 mM MgCl2, 1 mM DTT) and the 2.5 μM Histone H2B and 2 nM ATP-P^32. The reaction was terminated by addition of 100 μl 75 mM H3PO4, 90 μl of the assay mixture was filtered through Phosphocellulose cation exchange paper. After five times washing with […] H3PO4, the filterpaper was counting in a microtiterplate scintillation counter.

Each structure is given as a SMILES string.

T1 sequence (Q9Y243 whole entry): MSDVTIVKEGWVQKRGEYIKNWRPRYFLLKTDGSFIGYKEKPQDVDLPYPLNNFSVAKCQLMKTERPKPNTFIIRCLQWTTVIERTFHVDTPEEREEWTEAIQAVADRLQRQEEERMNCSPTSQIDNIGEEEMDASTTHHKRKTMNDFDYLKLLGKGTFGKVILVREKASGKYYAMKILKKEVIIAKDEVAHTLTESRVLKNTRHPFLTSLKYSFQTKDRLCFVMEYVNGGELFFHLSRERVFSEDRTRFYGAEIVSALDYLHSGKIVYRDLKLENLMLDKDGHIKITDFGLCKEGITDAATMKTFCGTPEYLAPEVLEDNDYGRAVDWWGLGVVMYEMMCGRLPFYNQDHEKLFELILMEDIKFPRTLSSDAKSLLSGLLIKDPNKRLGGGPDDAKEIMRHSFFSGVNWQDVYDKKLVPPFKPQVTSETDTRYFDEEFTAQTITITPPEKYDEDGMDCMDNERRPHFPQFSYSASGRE

In turn, `Cn1c(=O)nc2n(C3CCCC3)nc(-c3ccc(-c4ccc(CNCCO)cc4)o3)nc-2c1=O` [Compound 113] registered a melting point of 240 °C. The IC50 at AKT3 [1] was 34.8 nM. Besides, the IC50 with A2780 cell is 45.1 nM. Besides, the IC50 at CDC25B was 14.2 nM. In addition, the IC50 at AKT3 [2] is 32.5 nM.
On to `Cn1c(=O)nc2n(C3CCCC3)nc(-c3ccc(-c4ccc(CN5CCN(CCO)CC5)cc4)o3)nc-2c1=O` [Compound 106], for which the melting point was 175 °C. Further, the IC50 on AKT3 [1] was 102 nM. In addition, in the data set on A2780 cell, the IC50 was 70.3 nM. The IC50 at CDC25B was 15.6 nM. Moreover, the IC50 on AKT3 [2] was 84.3 nM.
Taken in the same sequence, the figures for `Cn1c(=O)nc2n(C3CCCC3)nc(-c3ccc(-c4ccc(CN5CCNCC5)cc4)o3)nc-2c1=O` [Compound 105] were over 276.5 °C, 98.2 nM, 54.5 nM, 16.6 nM and 115 nM.
As to `Cn1nc(-c2ccc(-c3cccc(CNS(C)(=O)=O)c3)o2)nc2c(=O)n(C)c(=O)nc1-2` [Compound 2], the melting point was in the range of 215.1 to 236.6 °C. Moreover, on AKT3 [1], the IC50 is 209 nM. In addition, in the data set on A2780 cell, the IC50 is 490 nM. Moreover, the IC50 at CDC25B was 20.8 nM. Further, at AKT3 [2], the IC50 was 72.6 nM.
For `Cn1c(=O)nc2n(C3CCN(S(N)(=O)=O)CC3)nc(-c3ccc(-c4cccc(Cl)c4)o3)nc-2c1=O` [Compound 114], in that order: over 250 °C, 187 nM, 110 nM, 15.2 nM and 45.2 nM.
Taken in the same sequence, the figures for `Cn1c(=O)nc2n(C3CCCC3)nc(-c3ccc(-c4ccc(CN5CCC(O)CC5)cc4)o3)nc-2c1=O` [Compound 103] were over 250 °C, 65.5 nM, 60.8 nM, 16 nM and 85.5 nM.
In turn, `Cn1nc(-c2ccc(-c3cccc(CN4CCOCC4)c3)o2)nc2c(=O)n(C)c(=O)nc1-2` [Compound 1] returned a melting point of 209.3 to 219.8 °C. Moreover, on AKT3 [1], the IC50 was 62.1 nM. Also, in the data set on A2780 cell, the IC50 is 61.9 nM. Besides, the IC50 at CDC25B was under 1 nM. Further, the IC50 at AKT3 [2] is 32.1 nM.
As to `CC(C)n1nc(-c2ccc(-c3ccc(CN4CCOCC4)cc3)o2)nc2c(=O)n(C)c(=O)nc1-2` [Compound 78], the IC50 on AKT3 [1] was 139 nM; in the data set with A2780 cell it was 79.8 nM; on CDC25B it was 11.3 nM; on AKT3 [2] it was 57.9 nM.
The compound `Cn1c(=O)nc2n(C3CCCC3)nc(-c3ccc(-c4cccc(CN5CCOCC5)c4)o3)nc-2c1=O` [Compound 98] yielded a melting point of 155 °C. In addition, the IC50 on AKT3 [1] is 111 nM. Also, the IC50 in the data set on A2780 cell was 107 nM. The IC50 at CDC25B is 15.1 nM. For the same compound, the IC50 on AKT3 [2] is 107 nM.
`Cn1c(=O)nc2n(C3CCCC3)nc(-c3ccc(-c4ccc(CN5CCOCC5)cc4)o3)nc-2c1=O` [Compound 94] gave a melting point of 255 °C. The IC50 at AKT3 [1] is 63.8 nM. In the data set on A2780 cell, the IC50 is 53 nM. Besides, the IC50 on CDC25B is 11.2 nM. Moreover, the IC50 at AKT3 [2] is 57.3 nM.
Turning to `Cn1c(=O)nc2n(C3CCNCC3)nc(-c3ccc(-c4cccc(Cl)c4)o3)nc-2c1=O` [Compound 96], the melting point was over 250 °C. On AKT3 [1], the IC50 is 3.41 nM. In addition, the IC50 in the data set on A2780 cell was 10 nM. Moreover, the IC50 at CDC25B is 9.18 nM. Besides, the IC50 on AKT3 [2] is 62.1 nM.
The compound `Cn1nc(-c2ccc(-c3ccc(S(=O)(=O)N4CCOCC4)cc3)o2)nc2c(=O)n(C)c(=O)nc1-2` showed a melting point of 264.3 to 273.4 °C.
As for `CONCc1ccc(-c2ccc(-c3nc4c(=O)n(C)c(=O)nc-4n(C4CCCC4)n3)o2)cc1` [Compound 115], the melting point stood at 140 °C. At AKT3 [1], the IC50 was 74.8 nM. Also, in the data set on A2780 cell, the IC50 was 46.9 nM. The IC50 on CDC25B is 13.2 nM. Besides, the IC50 at AKT3 [2] was 48.1 nM.
With `Cn1c(=O)nc2n(C3CCCC3)nc(-c3ccc(-c4ccc(CN5CCC(N)CC5)cc4)o3)nc-2c1=O` [Compound 37], the IC50 on AKT3 [1] is 34.4 nM; in the data set on A2780 cell it was 67.5 nM; on AKT3 [2], 51.8 nM.
Turning to `Cn1c(=O)nc2n(C3CCCC3)nc(-c3ccc(-c4ccc(S(=O)(=O)N5CCOCC5)cc4)o3)nc-2c1=O` [Compound 93], the melting point is over 250 °C. The IC50 on AKT3 [1] was 471 nM. The IC50 in the data set on A2780 cell was 52.8 nM. The IC50 at CDC25B is 11 nM. For the same compound, on AKT3 [2], the IC50 was 53.6 nM.
On to `CC(c1ccccc1)n1nc(-c2ccc(-c3cccc(Cl)c3)o2)nc2c(=O)n(C)c(=O)nc1-2` (stereo not drawn) [Compound 67], for which the IC50 was 716 nM on AKT3 [1], 196 nM in the data set on A2780 cell, 21.3 nM on CDC25B and 161 nM at AKT3 [2].
`Cn1nc(-c2ccc(-c3cccc(Cl)c3)o2)nc2c(=O)n(C3CCN(Cc4ccccc4)CC3)c(=O)nc1-2` showed a melting point of 210.4 to 241 °C.
Compound `CN(CCO)Cc1ccc(-c2ccc(-c3nc4c(=O)n(C)c(=O)nc-4n(C4CCCC4)n3)o2)cc1` [Compound 107] showed a melting point of over 250 °C. At AKT3 [1], the IC50 is 95.7 nM. Besides, the IC50 in the data set on A2780 cell is 60.8 nM. In addition, on CDC25B, the IC50 was 16 nM. Further, on AKT3 [2], the IC50 is 39.5 nM.

Usually melting point stands for the temperature, or range, at which the solid turns liquid.
